For one assay, the system named is TNFα. Nature of the assay: LPS-stimulated TNFα secretion from human PBMCs (ELISA). To be noted: LPS 1 ng/mL, 24 h. Type of assay: cell-based. The method, then:
(§1) The principal metabolites from liver metabolism of TQS-168 following oral administration have been described. See Sun et al., Rapid Commun. Mass Spectrom. 32:480-488 (2018), incorporated herein by reference. We synthesized the phase 1 metabolites from liver metabolism of TQS-168 illustrated in FIG. 20 and tested them for the ability to inhibit LPS-stimulated secretion of pro-inflammatory cytokines in vitro.
(§2) Briefly, 20,000 human PBMC were aliquoted into each well. LPS was added at 1 ng/mL and the cells incubated for 24 h in the presence of LPS and TQS-168 or one of its metabolites. Readouts were human IL-6 ELISA and human TNFα ELISA. For assay, supernatants were diluted in culture medium. The supernatant dilution for the IL-6 ELISA was 1:8, and the 1:2 for the human TNFα ELISA.

Another assay has as its system IL-6. The experiment in a line: LPS-stimulated IL-6 secretion from human PBMCs (ELISA). It counts as cell-based. The note with it: LPS 1 ng/mL, 24 h. The method, then: as §1, §2
Background: In an ELISA, binding on a coated surface is turned into a signal by an enzyme label.

“Also recorded” adds a separate entry of the source.

`CC(C)(C)c1ccc(-c2nc3cc(O)ccc3[nH]2)cc1` [TQS-621]: the “inhibition of LPS-stimulated TNFα secretion” value in the assay with TNFα is given as “potently inhibits; also recorded: potent inhibitor”. Moreover, the “inhibition of LPS-stimulated IL-6 secretion” value with IL-6 is given as “potently inhibits; also recorded: potent inhibitor”.

The values above are taken from US20250281462A1, “THERAPEUTICALLY EFFECTIVE ORAL ADMINISTRATION OF A 2 ARYLBENZIMIDAZOLE” (Tranquis Therapeutics, Inc., priority 2021, published 2025).
